The target in one test is PD-L1 (Homo sapiens (Human), UniProt Q9NZQ7). The test is described as follows: PD-L1 whole blood internalization assay. The class given is cell-based. The note with it: 24 HR, PD-L1 expression on CD14+ cells, human interferon γ.
Test [1] deals with PD-1/PD-L1 protein/protein interaction (recombinant human PD-L1 and human PD-1) (Homo sapiens (Human), UniProt Q9NZQ7). The test is described as follows: Homogeneous Time-Resolved Fluorescence (HTRF) PD-1/PD-L1 binding assay. The procedure, abridged:
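Human PD-L1 (19-238, C-His; 10 nM final) and PD-1 (25-167, C-Fc; 3 nM final) preincubated 40 min with inhibitor in PBS pH 7.4, 0.05% Tween-20, 0.1% BSA, 1% DMSO, 25 °C. Eu-anti-human IgG (1 nM) and anti-His-APC (20 nM) added for 60 min; 665/620 nm ratio; IC50 from percent-control curves.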
(In general: Time-resolved FRET reads energy transfer from a long-lived donor to a nearby acceptor.)

Test [2] concerns U2OS/PD-L1 cells and Jurkat-PD-1-SHP cells. The test is described as follows: Src homology region 2 domain-containing phosphatase (SHP) assay. The note with it: Homo sapiens, U2OS. The class given is cell-based. The procedure, abridged: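 U2OS/PD-L1 and Jurkat-PD-1-SHP cells (5000 each per well) were co-incubated with compound for 2 h at 37 °C in RPMI1640 with 1% FBS, 0.05% DMSO final. PathHunter chemiluminescence was read after 1 h at room temperature, and IC50 was fitted from percent of DMSO-control activity.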

The test system of test [3] is PD-L1 aAPC/CHO-K1 cells and Jurkat-PD-1-NFAT effector cells. Briefly: Nuclear factor of activated T-cells (NFAT) assay. The class given is cell-based. The note with it: Cricetulus griseus, CHO-K1. The essentials: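 CHO-K1 cells expressing PD-L1 aAPC were co-cultured with Jurkat-PD-1-NFAT effector cells in RPMI 1640 with 1% FBS and compound (0.4% DMSO; top concentration 2 μM) for 24 h at 37 °C. Bio-Glo luminescence was read, fold induction normalised to DMSO wells, and EC50 fitted from percent of control compound activity.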

Chain of PD-L1 (Q9NZQ7 19-290): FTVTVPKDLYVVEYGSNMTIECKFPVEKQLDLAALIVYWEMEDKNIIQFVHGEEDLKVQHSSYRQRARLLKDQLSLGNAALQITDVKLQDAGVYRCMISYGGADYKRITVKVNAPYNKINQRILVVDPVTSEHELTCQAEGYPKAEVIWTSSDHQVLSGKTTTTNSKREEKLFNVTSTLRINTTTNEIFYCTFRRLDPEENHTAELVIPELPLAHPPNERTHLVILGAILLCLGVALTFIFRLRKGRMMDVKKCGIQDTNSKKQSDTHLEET
Chain of PD-1/PD-L1 protein/protein interaction (recombinant human PD-L1 and human PD-1) (Q9NZQ7 19-238): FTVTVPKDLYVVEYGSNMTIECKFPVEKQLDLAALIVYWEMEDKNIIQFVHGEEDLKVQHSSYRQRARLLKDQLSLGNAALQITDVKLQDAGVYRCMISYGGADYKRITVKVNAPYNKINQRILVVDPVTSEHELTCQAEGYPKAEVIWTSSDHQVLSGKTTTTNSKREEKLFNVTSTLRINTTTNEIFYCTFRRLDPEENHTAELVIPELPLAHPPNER

Usually IC50 stands for the concentration at which inhibition is half-maximal. As a reminder, the EC50 is the midpoint of the concentration-response curve. High values mean weaker potency, low ones greater potency. As for `Cc1c(NC(=O)c2nc3c(n2C)CCN(CCC24CCC(C(=O)O)(CC2)C4)C3)cccc1-c1cccc(NC(=O)c2nc3c(n2C)CCN(CCO)C3)c1Cl` [Example 43, 4-(2-(2-((2′-chloro-3′-(5-(2-hydroxyethyl)-1-methyl-4,5,6,7-tetrahydro-1H-imidazo[4,5-c]pyridine-2-carboxamido)-2-methyl-[1,1′-biphenyl]-3-yl)carbamoyl)-1-methyl-1,4,6,7-tetrahydro-5H-imidazo[4,5-c]pyridin-5-yl)ethyl)bicyclo[2.2.1]heptane-1-carboxylic acid], the figures for the IC50 (against PD-L1; in test [1]; in test [2]) were 0.01 to 0.1 µM, not above 0.005 µM and not above 0.01 µM, respectively. Besides, the EC50 in test [3] fell in the range of 0.01 to 0.1 µM.

As to `Cc1c(NC(=O)c2nc3c(n2C)CCN(CCC24CCC(C(=O)O)(CC2)C4)C3)cccc1-c1cccc(NC(=O)c2nc3c(n2C)CCN(CC24CCC(C(=O)O)(CC2)C4)C3)c1Cl` [Example 44, 4-((2-((3′-(5-(2-(4-carboxybicyclo[2.2.1]heptan-1-yl)ethyl)-1-methyl-4,5,6,7-tetrahydro-1H-imidazo[4,5-c]pyridine-2-carboxamido)-2-chloro-2′-methyl-[1,1′-biphenyl]-3-yl)carbamoyl)-1-methyl-1,4,6,7-tetrahydro-5H-imidazo[4,5-c]pyridin-5-yl)methyl)bicyclo[2.2.1]heptane-1-carboxylic acid], the IC50 on PD-L1 was 0.1 to 0.5 µM; in test [1] it was not above 0.005 µM; in test [2], not above 0.01 µM. Further, the EC50 in test [3] fell in the range of 0.01 to 0.1 µM.

With `Cc1c(NC(=O)c2nc3c(n2C)CCN(CCC24CCC(C(=O)O)(CC2)C4)C3)cccc1-c1cccc(NC(=O)c2nc3c(n2C)CCN(CCc2ccc(C(=O)O)cc2)C3)c1Cl` [Example 45, 4-(2-(2-((3′-(5-(4-carboxyphenethyl)-1-methyl-4,5,6,7-tetrahydro-1H-imidazo[4,5-c]pyridine-2-carboxamido)-2′-chloro-2-methyl-[1,1′-biphenyl]-3-yl)carbamoyl)-1-methyl-1,4,6,7-tetrahydro-5H-imidazo[4,5-c]pyridin-5-yl)ethyl)bicyclo[2.2.1]heptane-1-carboxylic acid], the IC50 against PD-L1 was 0.1 to 0.5 µM; in test [1], 0.005 to 0.01 µM; in test [2], not above 0.01 µM. In test [3], the EC50 was in the range of 0.01 to 0.1 µM.

`Cn1c(C(=O)Nc2cccc(-c3cccc(NC(=O)c4nc5c(n4C)CCN(CCC46CCC(C(=O)O)(CC4)C6)C5)c3C#N)c2Cl)nc2c1CCN(CCC13CCC(C(=O)O)(CC1)C3)C2` [Example 51, 4,4′-(((((2-chloro-2′-cyano-[1,1′-biphenyl]-3,3′-diyl)bis(azanediyl))bis(carbonyl))bis(1-methyl-1,4,6,7-tetrahydro-5H-imidazo[4,5-c]pyridine-2,5-diyl))bis(ethane-2,1-diyl))bis(bicyclo[2.2.1]heptane-1-carboxylic acid)]: the IC50 against PD-L1 is 0.01 to 0.1 µM; in test [1], not above 0.005 µM; in test [2], not above 0.01 µM. This compound also showed an EC50 in test [3] of 0.01 to 0.1 µM.

Take `Cc1c(NC(=O)c2nc3c(n2C)CCN(CCC24CCC(C(=O)O)(CC2)C4)C3)cccc1-c1cccc(NC(=O)c2nc3c(n2C)CCN(CCC24CCC(C(=O)O)(CC2)C4)C3)c1C` [Example 54, 4,4′-(((((2,2′-dimethyl-[1,1′-biphenyl]-3,3′-diyl)bis(azanediyl))bis(carbonyl))bis(1-methyl-1,4,6,7-tetrahydro-5H-imidazo[4,5-c]pyridine-2,5-diyl))bis(ethane-2,1-diyl))bis(bicyclo[2.2.1]heptane-1-carboxylic acid)]: the IC50 against PD-L1 was 0.1 to 0.5 µM; in test [1] it was not above 0.005 µM; in test [2], not above 0.01 µM. For the same compound, in test [3], the EC50 fell in the range of 0.01 to 0.1 µM.

For `Cc1c(NC(=O)c2nc3c(n2C)CCN(CCC24CCC(C(=O)O)(CC2)C4)C3)cccc1-c1cccc(NC(=O)c2nc3c(n2C)CCN(C2CCOCC2)C3)c1C` [Example 56, 4-(2-(2-((2,2′-dimethyl-3′-(1-methyl-5-(tetrahydro-2H-pyran-4-yl)-4,5,6,7-tetrahydro-1H-imidazo[4,5-c]pyridine-2-carboxamido)-[1,1′-biphenyl]-3-yl)carbamoyl)-1-methyl-1,4,6,7-tetrahydro-5H-imidazo[4,5-c]pyridin-5-yl)ethyl)bicyclo[2.2.1]heptane-1-carboxylic acid], the IC50 at PD-L1 was 0.1 to 0.5 µM; in test [1], not above 0.005 µM; in test [2], not above 0.01 µM. The same compound displayed an EC50 in test [3] of 0.01 to 0.1 µM.

Regarding `Cc1c(NC(=O)c2nc3c(n2C)CCN(CCC24CCC(C(=O)O)(CC2)C4)C3)cccc1-c1cccc(NC(=O)c2nc3c(n2C)CCN(C[C@@H](C)O)C3)c1C` [Example 57, (R)-4-(2-(2-((3′-(5-(2-hydroxypropyl)-1-methyl-4,5,6,7-tetrahydro-1H-imidazo[4,5-c]pyridine-2-carboxamido)-2,2′-dimethyl-[1,1′-biphenyl]-3-yl)carbamoyl)-1-methyl-1,4,6,7-tetrahydro-5H-imidazo[4,5-c]pyridin-5-yl)ethyl)bicyclo[2.2.1]heptane-1-carboxylic Acid], the IC50 against PD-L1 was 0.01 to 0.1 µM; in test [1], not above 0.005 µM; in test [2] it was not above 0.01 µM. The EC50 in test [3] lay within 0.01 to 0.1 µM.

As for `Cc1c(NC(=O)c2nc3c(n2C)CCN(CCC24CCC(C(=O)O)(CC2)C4)C3)cccc1-c1cccc(NC(=O)c2nc3c(n2C)CCN(C[C@H](C)O)C3)c1C` [Example 58, (S)-4-(2-(2-((3′-(5-(2-hydroxypropyl)-1-methyl-4,5,6,7-tetrahydro-1H-imidazo[4,5-c]pyridine-2-carboxamido)-2,2′-dimethyl-[1,1′-biphenyl]-3-yl)carbamoyl)-1-methyl-1,4,6,7-tetrahydro-5H-imidazo[4,5-c]pyridin-5-yl)ethyl)bicyclo[2.2.1]heptane-1-carboxylic acid], the IC50 against PD-L1 was 0.1 to 0.5 µM; in test [1], not above 0.005 µM; in test [2] it was not above 0.01 µM. The same compound displayed an EC50 in test [3] of 0.01 to 0.1 µM.

In the case of `Cn1c(C(=O)Nc2cccc(-c3cccc(NC(=O)c4nc5c(n4C)CCN(CC[C@H]4CC[C@H](C(=O)O)CC4)C5)c3Cl)c2Cl)nc2c1CCN(CCC13CCC(C(=O)O)(CC1)C3)C2` [Example 62, 4-(2-(2-((3′-(5-(2-(trans-4-carboxycyclohexyl)ethyl)-1-methyl-4,5,6,7-tetrahydro-1H-imidazo[4,5-c]pyridine-2-carboxamido)-2,2′-dichloro-[1,1′-biphenyl]-3-yl)carbamoyl)-1-methyl-1,4,6,7-tetrahydro-5H-imidazo[4,5-c]pyridin-5-yl)ethyl)bicyclo[2.2.1]heptane-1-carboxylic acid], the IC50 against PD-L1 was 0.01 to 0.1 µM; in test [1] it was not above 0.005 µM; in test [2], not above 0.01 µM. Also, the EC50 in test [3] is 0.01 to 0.1 µM.

On to `Cn1c(C(=O)Nc2cccc(-c3cccc(NC(=O)c4nc5c(n4C)CCN([C@H]4CC[C@@](C)(C(=O)O)CC4)C5)c3Cl)c2Cl)nc2c1CCN(CCC13CCC(C(=O)O)(CC1)C3)C2` [Example 65, 4-(2-(2-((3′-(5-(cis-4-carboxy-4-methylcyclohexyl)-1-methyl-4,5,6,7-tetrahydro-1H-imidazo[4,5-c]pyridine-2-carboxamido)-2,2′-dichloro-[1,1′-biphenyl]-3-yl)carbamoyl)-1-methyl-1,4,6,7-tetrahydro-5H-imidazo[4,5-c]pyridin-5-yl)ethyl)bicyclo[2.2.1]heptane-1-carboxylic Acid], for which the IC50 on PD-L1 was 0.01 to 0.1 µM; in test [1] it was not above 0.005 µM; in test [2], not above 0.01 µM. In test [3], this compound registered an EC50 of 0.01 to 0.1 µM.

Turning to `Cn1c(C(=O)Nc2cccc(-c3cccc(NC(=O)c4nc5c(n4C)CCN([C@H]4CC[C@](C)(C(=O)O)CC4)C5)c3Cl)c2Cl)nc2c1CCN(CCC13CCC(C(=O)O)(CC1)C3)C2` [Example 66, 4-(2-(2-((3′-(5-(trans-4-carboxy-4-methylcyclohexyl)-1-methyl-4,5,6,7-tetrahydro-1H-imidazo[4,5-c]pyridine-2-carboxamido)-2,2′-dichloro-[1,1′-biphenyl]-3-yl)carbamoyl)-1-methyl-1,4,6,7-tetrahydro-5H-imidazo[4,5-c]pyridin-5-yl)ethyl)bicyclo[2.2.1]heptane-1-carboxylic Acid], the values for the IC50 (at PD-L1; in test [1]; in test [2]) were 0.01 to 0.1 µM, not above 0.005 µM and not above 0.01 µM, respectively. Besides, the EC50 in test [3] was not above 0.01 µM.
